Reference: patent US6384281B1, “3-bicycloaryl-2-aminomethyl bicycloalkanes as serotonine reuptake inhibitors” (Eli Lilly and Company, priority 1999, dated 2002)
Counter-ions that a name gives are not always drawn. Like-named read-outs stand apart in the source and are kept apart here.

Columns and labels:
[1] = target: T1, [3H]-citalopram binding sites on rat cerebral cortical membranes (serotonin reuptake) (Rattus norvegicus, UniProt P31652); test: [3H]-Citalopram binding assay
T1 construct: from tissue; host or cells: rat cerebral cortex membranes
T1 sequence (P31652 whole entry): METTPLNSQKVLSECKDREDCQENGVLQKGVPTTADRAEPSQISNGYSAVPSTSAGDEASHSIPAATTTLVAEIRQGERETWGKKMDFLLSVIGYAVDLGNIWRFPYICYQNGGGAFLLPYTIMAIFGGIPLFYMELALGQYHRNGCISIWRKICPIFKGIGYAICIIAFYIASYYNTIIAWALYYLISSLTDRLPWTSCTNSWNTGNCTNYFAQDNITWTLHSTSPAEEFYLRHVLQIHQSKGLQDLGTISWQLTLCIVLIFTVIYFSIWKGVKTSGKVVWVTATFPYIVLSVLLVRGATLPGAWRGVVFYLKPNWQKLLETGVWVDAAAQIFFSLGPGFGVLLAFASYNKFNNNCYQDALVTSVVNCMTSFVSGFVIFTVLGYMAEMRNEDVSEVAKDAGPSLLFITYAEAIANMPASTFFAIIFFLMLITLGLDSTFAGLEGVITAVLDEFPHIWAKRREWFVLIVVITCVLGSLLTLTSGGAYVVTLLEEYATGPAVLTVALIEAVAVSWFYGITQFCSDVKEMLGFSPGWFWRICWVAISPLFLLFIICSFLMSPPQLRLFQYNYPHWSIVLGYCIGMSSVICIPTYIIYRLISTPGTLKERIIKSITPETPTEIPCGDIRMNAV

[2] = displacement of [3H]-citalopram, rat cerebral cortical membranes, 37° C. for 90 minutes, read-out: Ki

Row | Ki [1, 2] [nM] | Compound | melting point [°C] | other results
1 |  | CN(C)C[C@H]1[C@H]2CC[C@H](C2)[C@@H]1c1ccc2ccsc2c1 (as salt: hydrochloride) | 240 to 242 | 
2 |  | Cc1csc2ccc([C@@H]3[C@H]4CC[C@H](C4)[C@H]3CN(C)C)cc12 (as salt: hydrochloride) [N,N-dimethyl[(1R,2R,3R,4S)-3-(3-methyl-1-benzothien-5-yl)bicyclo[2.2.1]hept-2-yl]methanamine] | 250 to 252 | 
3 |  | CN(C)C[C@H]1[C@H]2CC[C@H](C2)[C@@H]1c1ccc2cc(F)ccc2c1 (as salt: hydrochloride) [[(1S,2S,3S,4R)-3-(6-fluoro-2-naphthyl)bicyclo[2.2.1]hept-2-yl]-N,N-dimethylmethanamine] | 137 to 138 | 
4 |  | CN(C)CC1C2CCC(C2)C1c1ccc2ccccc2c1 (stereo not drawn) (as salt: hydrochloride) [cis- N,N-dimethyl(3-naphthalen-2-ylbicyclo[2.2.1]hept-2-yl)m] [cis-N,N-dimethyl (3-naphthalen-2-ylbicyclo[2.2.1]hept-2-yl)methanamine] | 255 to 257 | 
5 |  | CN(C)CC1C2CCC(C2)C1c1ccc2ccccc2c1 (stereo not drawn) (as salt: hydrochloride) [trans-endo-N,N-dimethyl(3-naphthalen-2-ylbicyclo[2.2.1]hept-] [trans-endo-N,N-dimethyl(3-naphthalen-2-ylbicyclo[2.2.1]hept-2-yl)methanamine] | 249 to 250 | 
6 | < 100 | Cc1csc2ccc([C@@H]3[C@H]4CC[C@H](C4)[C@H]3CN(C)C)cc12 [N,N-dimethyl[(1R,2R,3R,4S)-3-(3-methyl-1-benzothien-5-yl)bicyclo[2.2.1]hept-2-yl]methanamine] |  | 
7 | < 100 | CN(C)C[C@H]1[C@H]2CC[C@H](C2)[C@@H]1c1cc2ccc(F)cc2s1 [[(1S,2S,3S,4R)-3-(6-fluoro-1-benzothien-2-yl)bicyclo[2.2.1]hept-2-yl)-N,N-dimethylmethanamine] |  | 
8 |  | CN(C)C[C@H]1[C@H]2CC[C@H](C2)[C@@H]1c1ccc2cc(F)ccc2c1 [[(1S,2S,3S,4R)-3-(6-fluoro-2-naphthyl)bicyclo[2.2.1]hept-2-yl]-N,N-dimethylmethanamine] |  | Ki [1]: < 100 nM
9 | < 100 | NCC1C2CCC(CC2)C1c1ccc2ccccc2c1 (stereo not drawn) [trans-(3-Naphthalen-2-ylbicyclo[2.2 .2]oct-2-yl)methanamine] |  | 
10 |  | CN(C)CC1C2CCC(C2)C1c1ccc2ccccc2c1 (stereo not drawn) [trans-endo-N,N-dimethyl(3-naphthalen-2-ylbicyclo[2.2.1]hept-2-yl)methanamine] |  | Ki [1]: < 100 nM
11 |  | CNCC1C2CCC(C2)C1c1ccc2ccccc2c1 (stereo not drawn) [trans-endo-N-methyl (3-naphthalen-2-ylbicyclo [2.2.1]hept-2-yl)methanamine] |  | Ki [1]: < 100 nM

Row | Compound | Ki [1, 2] [nM] | melting point [°C] | other results
12 | CN(C)C[C@H]1[C@H]2CC[C@H](C2)[C@@H]1c1csc2cc(F)ccc12 [[(1S,2S,3S,4R)-3-(6-fluoro-1-benzothien-3-yl)bicyclo[2.2.1]hept-2-yl]-N,N-dimethylmethanamine] | < 100 |  | 
